This is an account of results in patent EP0528997B1, “DISULFIDE DERIVATIVES OF MERCAPTOACYLAMINO ACIDS” (SCHERING CORPORATION, priority 1990, dated 1991).

In assay [1] the test system is spontaneously hypertensive rats (SHR). The assay can be described thus: ANF potentiation procedure (antihypertensive effect in combination with ANF). The note with it: drop in blood pressure; 30 mg/kg sc. Type of assay: in vivo. The procedure: The antihypertensive effect of mercaptoacylamino acid disulfide derivatives in combination with ANF can be determined according to the following procedures:
Male spontaneously hypertensive rats (SHR), 16-18 weeks old, 270-350 g, are anesthetized with ether and the abdominal aorta is cannulated through the tail artery. The animals are then placed into restrainers to recover from anesthesia (in less than 10 min.) and remain inside throughout the experiments. Through a pressure transducer (Gould P23 series) analog blood pressure signals are registered on a Beckman 612 recorder. A Buxco digital computer is used to obtain mean arterial pressures. Patency of the arterial cannula is maintained with a continuous infusion of 5% dextrose at 0.2 ml/hr. Animals are allowed a 90-min equilibration period. The animals first undergo a challenge with an ANF such as atriopeptin II (AP II) or AP28 30 »g/kg iv and at the end of 60 min. are treated with drug vehicle or a mercapto-acylamino acid subcutaneously. A second ANF challenge is administered 15 min. later and blood pressure is monitored for the next 90 min.

The test system of assay [2] is DOCA salt hypertension in the rat. The assay can be described thus: DOCA salt hypertension model (antihypertensive effect). It is filed as in vivo, Sprague Dawley rats. The note with it: drop in blood pressure.

As to `CSCC[C@H](NC(=O)[C@@H](CSSC[C@@H](Cc1ccccc1C)C(=O)N[C@@H](CCSC)C(=O)O)Cc1ccccc1C)C(=O)O` [Example 2, 1,1'-[DITHIOBIS-[2(S)-(2-METHYLBENZYL)-1-OXO-3,1-PROPANEDIYL]]BIS-(S)-METHIONINE], the “ANF Potentiation ΔBP (mmHg)” value in assay [1] is reported as 27 mmHg. The “DOCA Salt ΔBP (mmHg)” value in assay [2] (1 mg/kg po) is 41 mmHg; in assay [2] (10 mg/kg po), 57 mmHg.
On to `Cc1ccccc1C[C@H](CSSC[C@@H](Cc1ccccc1C)C(=O)NC[C@H](O)C(=O)O)C(=O)NC[C@H](O)C(=O)O` [Example 4, 1,1'-[DITHIOBIS-[2(S)-(2-METHYLBENZYL)-1-OXO-3,1-PROPANEDIYL]]BIS-(S)-ISOSERINE], for which, in assay [1], the “ANF Potentiation ΔBP (mmHg)” value turned out to be 24 mmHg. Besides, the “DOCA Salt ΔBP (mmHg)” value amounted to 0 mmHg in assay [2] (0.1 mg/kg po), 21 mmHg in assay [2] (1 mg/kg po) and 31 mmHg in assay [2] (10 mg/kg po).
Consider `CCOC(=O)[C@H](CCSC)NC(=O)[C@@H](CSSC[C@@H](Cc1ccccc1C)C(=O)N[C@@H](CCSC)C(=O)OCC)Cc1ccccc1C` [Example 1, 1,1'-[DITHIOBIS-[2(S)-(2-METHYLBENZYL)-1-OXO-3,1-PROPANEDIYL]]BIS-(S)-METHIONINE DIETHYL ESTER], for which the “ANF Potentiation ΔBP (mmHg)” value in assay [1] is 0 mmHg. For the same compound, the “DOCA Salt ΔBP (mmHg)” value in assay [2] (3 mg/kg po) is listed as 15 mmHg.
On to `CCOC(=O)[C@@H](O)CNC(=O)[C@@H](CSSC[C@@H](Cc1ccccc1C)C(=O)NC[C@H](O)C(=O)OCC)Cc1ccccc1C` [Example 3, 1,1'-[DITHIOBIS-[2(S)-(2-METHYLBENZYL)-1-OXO-3,1-PROPANEDIYL]]BIS-(S)-ISOSERINE DIETHYL ESTER], for which, in assay [1], the “ANF Potentiation ΔBP (mmHg)” value is given as 29 mmHg. The figures for the “DOCA Salt ΔBP (mmHg)” value in assay [2] (0.1 mg/kg po), in assay [2] (1 mg/kg po) and in assay [2] (10 mg/kg po) were 31 mmHg, 30 mmHg and 44 mmHg, respectively.
